Columns and labels:
Assay type in all cases: in vivo
Conditions in all cases: Postemergence
[1] = tested on: green foxtail (Setaria viridis); test: Test B pre-/postemergence plant response
Procedure, shortened: (§1)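 Each species received compound formulated in non-phytotoxic solvent with surfactant, either at planting into a loam and sand blend or as a foliar spray once plants reached 2 to 18 cm in peat-based medium. Plants stayed in the greenhouse 13 to 15 days before visual evaluation against controls, scored 0 (no effect) to 100 (complete control).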

[2] = tested on: lambsquarters (Chenopodium album); test: Test B pre-/postemergence plant response
Procedure, shortened: as §1

[3] = tested on: corn (Zea mays); test: Test B pre-/postemergence plant response
Procedure, shortened: as §1

[4] = tested on: yellow nutsedge (Cyperus esculentus); test: Test B pre-/postemergence plant response
Procedure, shortened: as §1

[5] = tested on: johnsongrass (Sorghum halepense); test: Test B pre-/postemergence plant response
Procedure, shortened: as §1

[6] = tested on: soybean (Glycine max); test: Test B pre-/postemergence plant response
Procedure, shortened: as §1

[7] = tested on: velvetleaf (Abutilon theophrasti); test: Test B pre-/postemergence plant response
Procedure, shortened: as §1

[8] = tested on: pigweed (Amaranthus retroflexus); test: Test B pre-/postemergence plant response
Procedure, shortened: as §1

[9] = tested on: giant foxtail (Setaria faberii); test: Test B pre-/postemergence plant response
Procedure, shortened: as §1

[10] = tested on: goosegrass (Eleusine indica); test: Test B pre-/postemergence plant response
Procedure, shortened: as §1

[11] = tested on: windgrass (Apera spica-venti); test: Test B postemergence plant response
Procedure, shortened: (§2)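 Plants grown in peat/vermiculite medium were sprayed postemergence at 2–18 cm height (1- to 4-leaf stage). After 13–15 days in the greenhouse, response was rated visually against untreated controls on a 0–100 scale (0 no effect, 100 complete control).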

[12] = tested on: winter barley (Hordeum vulgare); test: Test B postemergence plant response
Procedure, shortened: as §2

[13] = tested on: chickweed (Stellaria media); test: Test B postemergence plant response
Procedure, shortened: as §2

[14] = tested on: canarygrass (Phalaris minor); test: Test B postemergence plant response
Procedure, shortened: as §2

COc1ccc(-n2c(-c3ccccc3)ncc(C(=O)C3=C(O)CCCC3=O)c2=O)cc1 [Compound 4, 5-[(2-hydroxy-6-oxo-cyclohexen-1-yl)carbonyl]-3-(4-methoxyphenyl)-2-phenyl-4(3H)-pyrimidinone]
Foxtail, Green plant response rating ([1]; 250 g ai/ha, scale 0 to 100): 60 | pest or weed control at 31 g/ha ([1]; Setaria viridis, post-emergence, 31 g ai/ha, scale 0 to 100 (0 no effect, 100 complete control), read-out: Plant response rating, Foxtail, Green): 40% | pest or weed control at 62 g/ha ([1]; Setaria viridis, post-emergence, 62 g ai/ha, scale 0 (no effect) to 100 (complete control), 13 to 15 days, read-out: Plant response rating, Foxtail, Green): 40% | pest or weed control at 125 g/ha ([1]; Setaria viridis, post-emergence, 125 g ai/ha, visual rating after 13 to 15 days, scale 0 (no effect) to 100 (complete control)): 60% | pest or weed control at 31 g/ha ([2]; Chenopodium album, post-emergence, 31 g ai/ha, scale 0 to 100 (0 no effect, 100 complete control), read-out: Plant response rating, Lambsquarters): 98% | pest or weed control at 62 g/ha ([2]; Chenopodium album, post-emergence, 62 g ai/ha, scale 0 (no effect) to 100 (complete control), 13 to 15 days, read-out: Plant response rating, Lambsquarters): 100% | pest or weed control at 125 g/ha ([2]; Chenopodium album, post-emergence, 125 g ai/ha, visual rating after 13 to 15 days, scale 0 (no effect) to 100 (complete control)): 100% | Lambsquarters plant response rating ([2]; 250 g ai/ha, scale 0 to 100): 100 | Corn plant response rating ([3]; 250 g ai/ha, scale 0 to 100): 85 | Corn plant response rating (crop injury, 0 = no effect, 100 = complete kill) at 31 g/ha ([3]; Zea mays, post-emergence, 31 g ai/ha, scale 0 to 100 (0 no effect, 100 complete control)): 10% | Corn plant response rating (crop injury, 0 = no effect, 100 = complete kill) at 62 g/ha ([3]; Zea mays, post-emergence, 62 g ai/ha, scale 0 (no effect) to 100 (complete control), 13 to 15 days): 25% | Corn plant response rating (crop injury, 0 = no effect, 100 = complete kill) at 125 g/ha ([3]; Zea mays, post-emergence, 125 g ai/ha, visual rating after 13 to 15 days, scale 0 (no effect) to 100 (complete control)): 50% | pest or weed control at 31 g/ha ([4]; Cyperus, post-emergence, 31 g ai/ha, scale 0 to 100 (0 no effect, 100 complete control), read-out: Plant response rating, Nutsedge, Yellow): 55% | pest or weed control at 62 g/ha ([4]; Cyperus, post-emergence, 62 g ai/ha, scale 0 (no effect) to 100 (complete control), 13 to 15 days, read-out: Plant response rating, Nutsedge, Yellow): 65% | pest or weed control at 125 g/ha ([4]; Cyperus, post-emergence, 125 g ai/ha, visual rating after 13 to 15 days, scale 0 (no effect) to 100 (complete control)): 75% | Nutsedge, Yellow plant response rating ([4]; 250 g ai/ha, scale 0 to 100): 80 | Johnsongrass plant response rating ([5]; 250 g ai/ha, scale 0 to 100): 98 | pest or weed control at 31 g/ha ([5]; Sorghum halepense, post-emergence, 31 g ai/ha, scale 0 to 100 (0 no effect, 100 complete control), read-out: Plant response rating, Johnsongrass): 45% | pest or weed control at 62 g/ha ([5]; Sorghum halepense, post-emergence, 62 g ai/ha, scale 0 (no effect) to 100 (complete control), 13 to 15 days, read-out: Plant response rating, Johnsongrass): 80% | pest or weed control at 125 g/ha ([5]; Sorghum halepense, post-emergence, 125 g ai/ha, visual rating after 13 to 15 days, scale 0 (no effect) to 100 (complete control)): 95% | plant injury at 31 g/ha ([6]; Glycine max, post-emergence, 31 g ai/ha, scale 0 to 100 (0 no effect, 100 complete control), read-out: Plant response rating, Soybean): 95% | plant injury at 62 g/ha ([6]; Glycine max, post-emergence, 62 g ai/ha, scale 0 (no effect) to 100 (complete control), 13 to 15 days, read-out: Plant response rating, Soybean): 100% | plant injury at 125 g/ha ([6]; Glycine max, post-emergence, 125 g ai/ha, visual rating after 13 to 15 days, scale 0 (no effect) to 100 (complete control)): 100% | Soybean plant response rating ([6]; 250 g ai/ha, scale 0 to 100): 100 | pest or weed control at 31 g/ha ([7]; Abutilon theophrasti, post-emergence, 360 h, 31 g ai/ha, scale 0 to 100 (0 no effect, 100 complete control), read-out: Plant response rating, Velvetleaf): 70% | pest or weed control at 62 g/ha ([7]; Abutilon theophrasti, post-emergence, 360 h, 62 g ai/ha, scale 0 (no effect) to 100 (complete control), 13 to 15 days, read-out: Plant response rating, Velvetleaf): 75% | pest or weed control at 125 g/ha ([7]; Abutilon theophrasti, post-emergence, 360 h, 125 g ai/ha, visual rating after 13 to 15 days, scale 0 (no effect) to 100 (complete control)): 90% | Velvetleaf plant response rating ([7]; 250 g ai/ha, scale 0 to 100): 100 | pest or weed control at 31 g/ha ([8]; Amaranthus retroflexus, post-emergence, 31 g ai/ha, scale 0 to 100 (0 no effect, 100 complete control), read-out: Plant response rating, Pigweed): 100% | pest or weed control at 62 g/ha ([8]; Amaranthus retroflexus, post-emergence, 62 g ai/ha, scale 0 (no effect) to 100 (complete control), 13 to 15 days, read-out: Plant response rating, Pigweed): 100% | pest or weed control at 125 g/ha ([8]; Amaranthus retroflexus, post-emergence, 125 g ai/ha, visual rating after 13 to 15 days, scale 0 (no effect) to 100 (complete control)): 100% | Pigweed plant response rating ([8]; 250 g ai/ha, scale 0 to 100): 100 | Foxtail, Giant plant response rating ([9]; 250 g ai/ha, scale 0 to 100): 100 | pest or weed control at 31 g/ha ([9]; Setaria faberi, post-emergence, 31 g ai/ha, scale 0 to 100 (0 no effect, 100 complete control), read-out: Plant response rating, Foxtail, Giant): 80% | pest or weed control at 62 g/ha ([9]; Setaria faberi, post-emergence, 62 g ai/ha, scale 0 (no effect) to 100 (complete control), 13 to 15 days, read-out: Plant response rating, Foxtail, Giant): 98% | pest or weed control at 125 g/ha ([9]; Setaria faberi, post-emergence, 125 g ai/ha, visual rating after 13 to 15 days, scale 0 (no effect) to 100 (complete control)): 98% | pest or weed control at 31 g/ha ([10]; Eleusine indica, post-emergence, 31 g ai/ha, scale 0 to 100 (0 no effect, 100 complete control), read-out: Plant response rating, Goosegrass): 25% | pest or weed control at 62 g/ha ([10]; Eleusine indica, post-emergence, 62 g ai/ha, scale 0 (no effect) to 100 (complete control), 13 to 15 days, read-out: Plant response rating, Goosegrass): 75% | pest or weed control at 125 g/ha ([10]; Eleusine indica, post-emergence, 125 g ai/ha, visual rating after 13 to 15 days, scale 0 (no effect) to 100 (complete control)): 85% | Goosegrass plant response rating ([10]; 250 g ai/ha, scale 0 to 100): 98 | pest or weed control at 31 g/ha ([11]; Apera spica-venti, post-emergence, 360 h, 31 g ai/ha, scale 0 to 100 (0 no effect, 100 complete control), read-out: Plant response rating, Windgrass): 50% | pest or weed control at 62 g/ha ([11]; Apera spica-venti, post-emergence, 360 h, 62 g ai/ha, scale 0 (no effect) to 100 (complete control), 13 to 15 days, read-out: Plant response rating, Windgrass): 55% | pest or weed control at 125 g/ha ([11]; Apera spica-venti, post-emergence, 360 h, 125 g ai/ha, visual rating after 13 to 15 days, scale 0 (no effect) to 100 (complete control)): 60% | Windgrass plant response rating ([11]; 250 g ai/ha, scale 0 to 100): 75 | plant injury at 31 g/ha ([12]; Hordeum vulgare, post-emergence, 31 g ai/ha, scale 0 to 100 (0 no effect, 100 complete control), read-out: Plant response rating, Barley): 0% | plant injury at 62 g/ha ([12]; Hordeum vulgare, post-emergence, 62 g ai/ha, scale 0 (no effect) to 100 (complete control), 13 to 15 days, read-out: Plant response rating, Barley): 0% | plant injury at 125 g/ha ([12]; Hordeum vulgare, post-emergence, 125 g ai/ha, scale 0 to 100 (0 no effect, 100 complete control), 13 to 15 days, read-out: Plant response rating, Barley): 0% | Barley plant response rating ([12]; 250 g ai/ha, scale 0 to 100): 10 | Chickweed plant response rating ([13]; 250 g ai/ha, scale 0 to 100): 100 | pest or weed control at 31 g/ha ([13]; Stellaria media, post-emergence, 360 h, 31 g ai/ha, scale 0 to 100 (0 no effect, 100 complete control), read-out: Plant response rating, Chickweed): 100% | pest or weed control at 62 g/ha ([13]; Stellaria media, post-emergence, 360 h, 62 g ai/ha, scale 0 (no effect) to 100 (complete control), 13 to 15 days, read-out: Plant response rating, Chickweed): 100% | pest or weed control at 125 g/ha ([13]; Stellaria media, post-emergence, 360 h, 125 g ai/ha, visual rating after 13 to 15 days, scale 0 (no effect) to 100 (complete control)): 100% | pest or weed control at 31 g/ha ([14]; Phalaris minor, post-emergence, 360 h, 31 g ai/ha, scale 0 to 100 (0 no effect, 100 complete control), read-out: Plant response rating, Canarygrass): 10% | pest or weed control at 62 g/ha ([14]; Phalaris minor, post-emergence, 360 h, 62 g ai/ha, scale 0 (no effect) to 100 (complete control), 13 to 15 days, read-out: Plant response rating, Canarygrass): 20% | pest or weed control at 125 g/ha ([14]; Phalaris minor, post-emergence, 360 h, 125 g ai/ha, visual rating after 13 to 15 days, scale 0 (no effect) to 100 (complete control)): 75% | Canarygrass plant response rating ([14]; 250 g ai/ha, scale 0 to 100): 80

— patent publication US8952024B2, “Herbicidal pyrimidone derivatives” (E I du Pont de Nemours and Company, priority 2009, dated 2015)
